Assay results reported in US9024041B2, “P38 MAP kinase inhibitors” (Respivert Ltd., priority 2010, dated 2015).

Assays:
[1] = tested on: LPS-induced TNFα release in THP-1 cells; assay: LPS-induced TNFα release in THP-1 cells; assay type: cell-based; conditions: Homo sapiens, 3 μg/mL LPS, 4 hr
Procedure: Cellular Potency as Determined by LPS-Induced TNFα Release in THP-1 Cells
THP-1 cells, a human monocytic cell line, were stimulated with 3 μg/mL of LPS (from E. Coli; 0111:B4, Sigma) for 4 hr and the supernatant collected for determination of the TNFα concentration by sandwich ELISA (Duo-set, R&D systems). The inhibition of TNFα production was calculated at each concentration by comparison with vehicle control. The 50% inhibitory concentration (IC50) was determined from the resultant concentration-response curve.

[2] = target: T1, Recombinant, phosphorylated p38 MAPKγ (MAPK12:Invitrogen) (Homo sapiens, UniProt P53778); assay: p38 MAPKγ enzyme inhibition assay (FRET, Z-LYTE); assay type: biochemical; conditions: 2 hr pre-incubation, ATP 100 μM; read-out: Enzyme Inhibition IC50 p38γ
T1 construct: purchased Invitrogen
T1 sequence (P53778 1-367): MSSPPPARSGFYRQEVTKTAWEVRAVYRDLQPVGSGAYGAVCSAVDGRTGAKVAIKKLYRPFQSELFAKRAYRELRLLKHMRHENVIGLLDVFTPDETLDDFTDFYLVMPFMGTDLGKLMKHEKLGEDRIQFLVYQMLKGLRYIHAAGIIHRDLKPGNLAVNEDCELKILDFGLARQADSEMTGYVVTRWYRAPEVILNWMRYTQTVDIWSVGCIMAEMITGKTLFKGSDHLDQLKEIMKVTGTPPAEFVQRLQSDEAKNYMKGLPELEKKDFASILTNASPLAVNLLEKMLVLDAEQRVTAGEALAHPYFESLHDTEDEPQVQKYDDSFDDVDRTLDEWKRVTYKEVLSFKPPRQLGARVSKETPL

[3] = target: T2, p38 MAPKα isoform (MAPK14: Invitrogen) (Homo sapiens, UniProt Q16539); assay: p38 MAPKα enzyme inhibition assay (FRET, Z-LYTE, via MAPKAP-K2 activation); assay type: biochemical; conditions: 2 hr pre-incubation, ATP 10.0 μM; read-out: Enzyme Inhibition IC50 p38α
T2 construct: purchased Invitrogen
T2 sequence (Q16539 whole entry, canonical isoform): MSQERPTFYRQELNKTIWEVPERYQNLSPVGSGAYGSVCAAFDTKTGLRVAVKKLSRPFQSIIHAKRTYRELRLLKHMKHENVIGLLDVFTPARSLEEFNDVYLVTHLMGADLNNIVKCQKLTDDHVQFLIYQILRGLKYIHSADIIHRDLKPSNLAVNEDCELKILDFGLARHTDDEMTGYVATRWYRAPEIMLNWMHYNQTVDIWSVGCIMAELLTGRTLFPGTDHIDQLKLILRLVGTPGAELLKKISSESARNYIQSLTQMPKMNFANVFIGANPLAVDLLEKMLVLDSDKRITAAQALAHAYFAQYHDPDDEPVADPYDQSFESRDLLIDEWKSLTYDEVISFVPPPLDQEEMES
Procedure: The enzyme inhibitory activities of compounds disclosed herein were determined by fluorescence resonance energy transfer (FRET) using synthetic peptides labelled with both donor and acceptor fluorophores (Z-LYTE, Invitrogen Ltd., Paisley, UK). Recombinant, phosphorylated p38 MAPKγ (MAPK12:Invitrogen) was diluted in HEPES buffer, mixed with the test compound at the desired final concentrations and incubated for 2 hr at RT. The FRET peptide (2 μM) and ATP (100 μM) were added to the enzyme/compound mixture and incubated for 1 hr. Development reagent (protease) was added for 1 hr prior to detection in a fluorescence microplate reader (Varioskan® Flash, ThermoFisher Scientific). The site-specific protease cleaves non-phosphorylated peptide only and eliminates the FRET signal. Phosphorylation levels of each reaction were calculated using the ratio of coumarin emission (donor) over fluorescein emission (acceptor) for which high ratios indicate high phosphorylation and low ratios indicate low phosphorylation levels.
For the p38 MAPKα isoform (MAPK14: Invitrogen), enzyme activity was evaluated indirectly by determining the level of activation/phosphorylation of the down-stream molecule, MAPKAP-K2. The p38 MAPKα protein was mixed with the test compound for 2 hr at RT. […] Development reagent was then added and the mixture incubated for 1 hr before detection by fluorescence completed the assay protocol.

[4] = tested on: LPS-induced IL-8 release in d-U937 cells; assay: LPS-induced IL-8 release in d-U937 cells; assay type: cell-based; conditions: Homo sapiens, dU937, 0.1 μg/mL LPS, 4 hr
Procedure: (§1) Cellular Potency as Determined by LPS-Induced TNFα/IL-8 Release in d-U937Cells
(§2) U937 cells, a human monocytic cell line, were differentiated to macrophage-type cells by incubation with phorbol myristate acetate (PMA; 100 ng/mL) for 48 to 72 hr. Cells were pre-incubated with final concentrations of test compound for 2 hr and were then stimulated with 0.1 μg/mL of LPS (from E. Coli: O111:B4, Sigma) for 4 hr. The supernatant was collected for determination of TNFα and IL-8 concentrations by sandwich ELISA (Duo-set, R&D systems). […] The relative 50% effective concentration (REC50) was determined from the resultant concentration-response curve. The inhibition of IL-8 production was calculated at each concentration of test compound by comparison with vehicle control. The 50% inhibitory concentration (IC50) was determined from the resultant concentration-response curve.

[5] = tested on: Differentiated U937 cells; assay: MTT assay: cell viability on exposure to test compounds; assay type: cell-based, human; conditions: percentage loss of cell viability vs vehicle, 1 μg/mL; for MTT Assay (Viability) 4 h d-U937: 5% FCS; for MTT Assay (Viability) 24 h d-U937: 10% FCS
Procedure: MTT Assay: Determination of Cell Viability on Exposure to Test Compounds
Differentiated U937 cells were pre-incubated with each test compound under two protocols: the first for 4 hr in 5% FCS and the second in 10% FCS for 24 h. The supernatant was replaced with 200 μL of new media and 10 μL of MTT stock solution (5 mg/mL) was added to each well. After incubation for 1 hr the media were removed, 200 μL of DMSO was added to each well and the plates were shaken lightly for 1 hr prior to reading the absorbance at 550 nm. The percentage loss of cell viability was calculated for each well relative to vehicle (0.5% DMSO) treatment. Consequently an apparent increase in cell viability for drug treatment relative to vehicle is tabulated as a negative percentage.

[6] = tested on: Poly I:C-induced ICAM-1 expression in BEAS2B cells; assay: Poly I:C-induced ICAM-1 induction in BEAS2B cells; assay type: cell-based; conditions: Homo sapiens, BEAS-2B, poly I:C 1 μg/mL, 18 hr, read-out: PolyI:C/ICAM1 IC50 BEAS2B
Procedure: Cellular Potency as Determined by Poly I:C-Induced ICAM-1 Induction in BEAS2B Cells
Poly I:C (1 μg/mL) (Invivogen Ltd., San Diego, Calif.) was transfected into BEAS2B cells (human bronchial epithelial cells, ATCC) with Oligofectamine (Invitrogen, Carlsbad, Calif.). Cells were pre-incubated with final concentrations of test compounds for 2 hr and the level of ICAM1 expression on the cell surface was determined by cell-based ELISA. At a time point 18 hr after poly I:C transfection, cells were fixed with 4% formaldehyde in PBS and then endogenous peroxidase was quenched by the addition of 0.1% sodium azide and 1% hydrogen peroxide. Cells were washed with wash-buffer (0.1% Tween in PBS: PBS-Tween). and after blocking the wells with 5% milk in PBS-Tween for 1 hr, the cells were incubated with anti-human ICAM-1 antibody (Cell Signaling Technology, Danvers, Mass.) in 1% BSA PBS overnight at 4° C. The cells were washed with PBS-Tween and incubated with the secondary antibody (HRP-conjugated anti-rabbit IgG, Dako Ltd., Glostrup, Denmark). The ICAM-1 signal was detected by adding substrate and reading the absorbance at 450 nm against a reference wavelength of 655 nm using a spectrophotometer. The cells were then washed with PBS-Tween and total cell numbers in each well were determined by reading absorbance at 595 nm after Crystal Violet staining and elution by 1% SDS solution. The measured OD 450-655 readings were corrected for cell number by dividing with the OD595 reading in each well. The inhibition of ICAM-1 expression was calculated at each concentration of test compound by comparison with vehicle control. The 50% inhibitory concentration (IC50) was determined from the resultant concentration-response curve.

[7] = tested on: LPS-induced TNFα release in d-U937 cells; assay: LPS-induced TNFα release in d-U937 cells; assay type: cell-based; conditions: Homo sapiens, dU937, 4 h; read-out: LPS/TNFα REC50 d-U937
Procedure: as §1, §2

Row | IC50 [1] [nM] | IC50 [2] [nM] | IC50 [3] [nM] | IC50 [4] [nM] | EC50 [7] [nM] | Compound | MTT Assay (Viability) 4 h d-U937 [5] [%] | MTT Assay (Viability) 24 h d-U937 [5] [%] | IC50 [6] [nM]
1 | 0.7 | 138 | 4.1 | 0.1 | 0.03 | COc1ccc(-n2nc(C(C)(C)C)cc2NC(=O)Nc2ccc(Oc3ccnc(NC(=O)N(C)C)c3)c3ccccc23)cc1 [Example 7, 3-(4-(4-(3-(3-tert-Butyl-1-(4-methoxyphenyl)-1H-pyrazol-5-yl)ureido)naphthalen-1-yloxy)pyridin-2-yl)-1,1-dimethylurea] | −13.3 | −39.1 | 1.9
2 | 1.6 | 228 | 16.6 | 1.2 | 0.6 | COc1ccc(-n2nc(C(C)(C)C)cc2NC(=O)Nc2ccc(Oc3ccnc(NC(=O)N4CCCC4)c3)c3ccccc23)cc1 [Example 8, N-(4-(4-(3-(3-tert-Butyl-1-(4-methoxyphenyl)-1H-pyrazol-5-yl)ureido)naphthalen-1-yloxy)pyridin-2-yl)pyrrolidine-1-carboxamide] | −20.1 | −77.9 | 1.4
3 | 0.5 | 203 | 2.7 | 1.4 | 0.6 | COc1ccc(-n2nc(C(C)(C)C)cc2NC(=O)Nc2ccc(Oc3ccnc(NC(=O)N4CCOCC4)c3)c3ccccc23)cc1 [Example 9, N-(4-((4-(3-(3-tert-Butyl-1-(4-methoxyphenyl)-1H-pyrazol-5-yl)ureido)naphthalen-1-yl)oxy)pyridin-2-yl)morpholine-4-carboxamide] | −5.7 | 18.6 | 2.1
4 | 1.6 | 104 | 4.7 | 2.3 | 1.5 | COc1ccc(-n2nc(C(C)(C)C)cc2NC(=O)Nc2ccc(Oc3ccnc(NC(=O)N4CCN(C)CC4)c3)c3ccccc23)cc1 [Example 10, N-(4-(4-(3-(3-tert-Butyl-1-(4-methoxyphenyl)-1H-pyrazol-5-yl)ureido)naphthalen-1-yloxy)pyridin-2-yl)-4-methyl piperazine-1-carboxamide] | −12.5 | −21.2 | 3.5
5 | 0.6 | 151 | 4 | 3.6 | 0.2 | COCC(=O)Nc1cc(Oc2ccc(NC(=O)Nc3cc(C(C)(C)C)nn3-c3ccc(OC)c(OC)c3)c3ccccc23)ccn1 [Example 11, N-(4-(4-(3-(3-tert-Butyl-1-(3,4-dimethoxyphenyl)-1H-pyrazol-5-yl)ureido)naphthalen-1-yloxy)pyridin-2-yl)-2-methoxyacetamide] | −9.3 | −0.8 | 2.5
6 | 3.3 | 147 | 2.7 | 8.4 | 0.4 | CC(C)(C)c1cc(NC(=O)Nc2ccc(Oc3ccnc(NC(=O)N4CCOCC4)c3)c3ccccc23)n(-c2ccc(O)c(Cl)c2)n1 [Example 12, N-(4-((4-(3-(3-(tert-Butyl)-1-(3-chloro-4-hydroxyphenyl)-1H-pyrazol-5-yl)ureido)naphthalen-1-yl)oxy)pyridin-2-yl)morpholine-4-carboxamide] | −6.2 | −42.9 | 3.2
7 | 3.2 | 400 | 17 | 7.3 | 0.6 | CSc1ccc(-n2nc(C(C)(C)C)cc2NC(=O)Nc2ccc(Oc3ccnc(NC(=O)N4CCCC4)c3)c3ccccc23)cc1 [Example 14, N-(4-(4-(3-(3-tert-Butyl-1-(4-(methylthio)phenyl)-1H-pyrazol-5-yl)ureido)naphthalen-1-yloxy)pyridin-2-yl)pyrrolidine-1-carboxamide] | −0.4 | −50.0 | 1.9
8 | 2 | 76.3 | 14.3 | 24.5 | 1.4 | COCC(=O)Nc1cc(Oc2ccc(NC(=O)Nc3cc(C(C)(C)C)nn3-c3ccc(O)nc3)c3ccccc23)ccn1.Cl [Example 17, N-(4-(4-(3-(3-tert-Butyl-1-(6-hydroxypyridin-3-yl)-1H-pyrazol-5-yl)ureido)naphthalen-1-yloxy)pyridin-2-yl)-2-methoxyacetamide] | −6.1 | −7.6 | 25.3
9 | 1.2 | 95.5 | 8.8 | 40 | 0.7 | COCC(=O)Nc1cc(Oc2ccc(NC(=O)Nc3cc(C(C)(C)C)nn3-c3cc(C)cs3)c3ccccc23)ccn1 [Example 18, N-(4-(4-(3-(3-tert-Butyl-1-(4-methylthiophen-2-yl)-1H-pyrazol-5-yl)ureido)naphthalen-1-yloxy)pyridin-2-yl)-2-methoxyacetamide] | 8.2 | −2.9 | 3.7
10 | 1.8 | 261 | 0.4 | 24.5 | 8.1 | COCC(=O)Nc1cc(Oc2ccc(NC(=O)Nc3cc(-c4ccccc4)nn3-c3ccccc3)c3ccccc23)ccn1 [Example 19, N-(4-((4-(3-(1,3-Diphenyl-1H-pyrazol-5-yl)ureido)naphthalen-1-yl)oxy)pyridin-2-yl)-2-methoxyacetamide] | −1.7 | −11.7 | 369
11 | 0.9 | 143 | 3.6 | 0.6 | 0.2 | COCC(=O)Nc1cc(Oc2ccc(NC(=O)Nc3cc(C4(C)CCOCC4)nn3-c3ccc(C)cc3)c3ccccc23)ccn1 [Example 20, 2-Methoxy-N-(4-(4-(3-(3-(4-methyltetrahydro-2H-pyran-4-yl)-1-p-tolyl-1H-pyrazol-5-yl)ureido)naphthalen-1-yloxy)pyridin-2-yl)acetamide] | −32.6 | −9.0 | 4.4
